In patent publication US20240000075A1, “FUNGICIDAL ARYL AMIDINES” (CORTEVA AGRISCIENCE LLC, priority 2020, published 2024):
Like-named read-outs stand apart in the source and are kept apart here.

Tests used:
Zymoseptoria tritici = assay: Septoria leaf blotch of wheat, whole-plant fungicidal activity (SEPTTR); type: in vivo, Zymoseptoria tritici on wheat plants (variety 'Yuma'); settings: read-out: % Disease Control Rating SEPTTR
Experimental: Example A: Evaluation of Fungicidal Activity: Septoria Leaf Blotch of Wheat (Zymoseptoria tritici; Bayer Code […]) Technical grades of materials were dissolved in acetone, which were then mixed with nine volumes of water (H2O) containing 110 ppm Triton X-100. The fungicide solutions were applied onto wheat seedlings using an automated booth sprayer to run-off. All sprayed plants were allowed to air dry prior to further handling. All fungicides were evaluated using the aforementioned method for their activity vs. all target diseases, unless stated otherwise. Wheat plants (variety 'Yuma') were grown from seed in a greenhouse in soil-less potting mix until the first leaf was fully emerged, with 7-10 seedlings per pot. These plants were inoculated with an aqueous spore suspension of Zymoseptoria tritici either 3 days prior to fungicide treatment (3 day curative; 3DC) or 1 day after fungicide treatment (1 day protectant; 1DP). After inoculation the plants were kept in 100% relative humidity for three days to permit spores to germinate and infect the leaf. The plants were then transferred to a greenhouse for disease to develop. When disease symptoms were fully expressed on the 1st leaves of untreated plants, infection levels were assessed on a scale of 0 to 100 percent disease severity. Percent disease control was calculated using the ratio of disease severity on treated plants relative to untreated plants.

Puccinia triticina = assay: Wheat brown rust, whole-plant fungicidal activity (PUCCRT); type: in vivo, Puccinia triticina on wheat plants (variety 'Yuma'); settings: 24 h, 1DP (1 day protectant), read-out: % Disease Control Rating PUCCRT
Experimental: Technical grades of materials were dissolved in acetone, which were then mixed with nine volumes of water (H2O) containing 110 ppm Triton X-100. The fungicide solutions were applied onto wheat seedlings using an automated booth sprayer to run-off. All sprayed plants were allowed to air dry prior to further handling. All fungicides were evaluated using the aforementioned method for their activity vs. all target diseases, unless stated otherwise.
Example B: Evaluation of Fungicidal Activity: Wheat Brown Rust (Puccinia triticina; Synonym: Puccinia recondita f sp. tritici; Bayer Code PUCCRT)
Wheat plants (variety ‘Yuma’) were grown from seed in a greenhouse in soil-less potting mix until the first leaf was fully emerged, with 7-10 seedlings per pot. These plants were inoculated with an aqueous spore suspension of Puccinia triticina after fungicide treatments. After inoculation, the plants were kept in a dark dew room with 100% relative humidity overnight to permit spores to germinate and infect the leaf. The plants were then transferred to a greenhouse for disease to develop. Fungicide formulation, application and disease assessment followed the procedures as described in Example A.

Phakopsora pachyrhizi = assay: Asian soybean rust, whole-plant fungicidal activity (PHAKPA); type: in vivo; settings: read-out: % Disease Control Rating PHAKPA
Experimental: Example C: Evaluation of Fungicidal Activity: Asian Soybean Rust (Phakopsora pachyrhizi; Bayer Code […]) Technical grades of materials were dissolved in acetone, which were then mixed with nine volumes of H2O containing 0.011% Tween-20. The fungicide solutions were applied onto soybean seedlings using an automated booth sprayer to run-off. All sprayed plants were allowed to air dry prior to further handling. Soybean plants (variety 'Williams 82') were grown in soil-less potting mix, with one plant per pot. Ten-day-old seedlings were used for testing. Plants were inoculated as described in Example A. Plants were incubated for 24 h in a dark dew room with 100% relative humidity then transferred to a growth room for disease to develop. Fungicide formulation and application were made as described in Example A. When disease symptoms were fully expressed, disease severity was assessed on the sprayed leaves on a scale of 0 to 100 percent. Percent disease control was calculated using the ratio of disease severity on treated plants relative to untreated plants.

Rhynchosporium commune = assay: Leaf blotch of barley, whole-plant fungicidal activity (RHYNSE); type: in vivo; settings: 24 h, 1DP (1 day protectant), read-out: % Disease Control Rating RHYNSE
Experimental: Technical grades of materials were dissolved in acetone, which were then mixed with nine volumes of water (H2O) containing 110 ppm Triton X-100. The fungicide solutions were applied onto wheat seedlings using an automated booth sprayer to run-off. All sprayed plants were allowed to air dry prior to further handling. All fungicides were evaluated using the aforementioned method for their activity vs. all target diseases, unless stated otherwise. Example D: Evaluation of Fungicidal Activity: Leaf Blotch of Barley (Rhynchosporium commune; Bayer Code […]) Barley plants (variety 'Harrington') were grown from seed in a greenhouse in soil-less potting mix until the first leaf was fully emerged, with 7-10 seedlings per pot. These plants were inoculated with an aqueous spore suspension of Rhynchosporium commune after fungicide treatments. After inoculation, the plants were kept in a dark dew room with 100% relative humidity for two days to permit spores to germinate and infect the leaf. The plants were then transferred to a greenhouse for disease to develop. Fungicide formulation and application were made as described in Example A. Disease assessment was conducted as described in Example A.

Structure (SMILES)	pest or weed control at 200 ppm (Zymoseptoria tritici; 24 h, 1DP (1 day protectant))	pest or weed control at 200 ppm (Zymoseptoria tritici; 72 h, 3DC (3 day curative))	pest or weed control at 200 ppm (Puccinia triticina)	pest or weed control at 200 ppm (Phakopsora pachyrhizi; 24 h, 1DP (1 day protectant))	pest or weed control at 200 ppm (Rhynchosporium commune)	pest or weed control at 200 ppm (Phakopsora pachyrhizi; 72 h, 3DC (3 day curative))
Cc1cc(C(=O)Cc2c(F)cc(F)cc2F)c(C)cc1/N=C/N1CCCCC1 [Compound 81]	< 20%	< 20%	> 85%	50 to 85%	< 20%	–
Cc1cc(C(=O)CC2CCCCC2)c(C)cc1/N=C(\S)N(C)C [Compound 52]	20 to 50%	< 20%	> 85%	> 85%	< 20%	50 to 85%
CCN(/C=N/c1cc(C)c(C(=O)CC2CCCC2)cc1C)CC [Compound 77]	< 20%	< 20%	> 85%	> 85%	20 to 50%	> 85%
CCN(C)/C=N/c1cc(C)c(C(=O)CCC(F)(F)C(F)(F)F)cc1C [Compound 29]	50 to 85%	50 to 85%	> 85%	> 85%	> 85%	> 85%
CCN(C)/C=N/c1cc(C)c(C(=O)Cc2ccc3c(c2)CCC3)cc1C [Compound 71]	20 to 50%	< 20%	> 85%	> 85%	> 85%	> 85%
CCN(CC)/C(S)=N/c1cc(C)c(C(=O)CC2CCCCC2)cc1C [Compound 55]	50 to 85%	< 20%	> 85%	> 85%	< 20%	> 85%
Cc1cc(C(=O)CC2CCCCC2)c(C)cc1/N=C(\S)N1CCCCC1 [Compound 50]	> 85%	20 to 50%	> 85%	> 85%	< 20%	> 85%
CCN(C)/C=N/c1cc(C)c(C(=O)Cc2ccccc2F)cc1C [Compound 18]	50 to 85%	< 20%	50 to 85%	> 85%	> 85%	> 85%
CCN(C)/C(C)=N/c1cc(C)c(C(=O)Cc2c(F)cc(F)cc2F)cc1C [Compound 86]	< 20%	< 20%	> 85%	> 85%	< 20%	> 85%
CCN(C)/C=N/c1cc(C)c(C(=O)Cc2cccc(OC(F)(F)F)c2)cc1C [Compound 34]	50 to 85%	< 20%	> 85%	> 85%	> 85%	> 85%
Cc1cc(C(=O)CC2CCCCC2)c(C)cc1/N=C/N(C)C [Compound 57]	50 to 85%	< 20%	> 85%	> 85%	< 20%	> 85%
Cc1cc(C(=O)CC2CCCC2)c(C)cc1/N=C1\CCCCN1C [Compound 92]	< 20%	< 20%	> 85%	50 to 85%	20 to 50%	50 to 85%
CCN(C)/C=N/c1cc(C)c(C(=O)C2CCCCC2)cc1C [Compound 26]	> 85%	20 to 50%	> 85%	> 85%	> 85%	> 85%
Cc1cc(C(=O)CC2CCCC2)c(C)cc1/N=C/N(C)C(C)C [Compound 82]	> 85%	< 20%	> 85%	> 85%	> 85%	> 85%
CCN(C)/C=N/c1cc(C)c(C(=O)Cc2c(F)cc(F)cc2F)cc1C [Compound 23]	20 to 50%	< 20%	> 85%	> 85%	> 85%	> 85%
CCN(C)/C=N/c1cc(C)c(C(=O)Cc2cccc(C(=O)OC)c2F)cc1C [Compound 31]	> 85%	< 20%	> 85%	< 20%	50 to 85%	< 20%
Cc1cc(C(=O)CC2CCCCC2)c(C)cc1/N=C(\S)N(C)Cc1ccccc1 [Compound 53]	< 20%	< 20%	< 20%	< 20%	< 20%	< 20%
CCN(C)/C=N/c1cc(OC)c(C(=O)CC2CCCCC2)cc1C [Compound 72]	< 20%	< 20%	> 85%	> 85%	< 20%	> 85%
CCN(C)/C=N/c1cc(OC)c(C(=O)Cc2c(F)cc(F)cc2F)cc1C [Compound 37]	> 85%	50 to 85%	> 85%	> 85%	< 20%	> 85%
CCN(/C=N/c1cc(C)c(C(=O)CC2CCCCC2)cc1C)CC [Compound 58]	50 to 85%	< 20%	> 85%	> 85%	< 20%	> 85%
CC/C(=N\c1cc(C)c(C(=O)CC2CCCC2)cc1C)N(C)CC [Compound 91]	< 20%	< 20%	> 85%	> 85%	< 20%	> 85%
Cc1cc(C(=O)CC2CCCCC2)c(C)cc1/N=C/N(C)CC(F)(F)F [Compound 38]	< 20%	< 20%	< 20%	< 20%	< 20%	< 20%
CCN(C)/C=N/c1cc(C)c(C(=O)Cc2ccc(C(C)(C)C)cc2)cc1C [Compound 67]	> 85%	< 20%	> 85%	> 85%	> 85%	> 85%
